Measured values reported in article PMC7876106 (Scientific Reports, 2021).

Tests used:
TERRA = test: CD spectroscopy of TERRA mixed with compound; conditions: 1:1 molar ratio, 150 mM KCl buffer
Experimental: All nucleic acids were dissolved in buffer containing 20 mM HEPES pH7.5, 150 mM salt (KCl or LiCl), 20% PEG8000 at the concentration of 10 μM for experiments. A J-815 spectrometer equipped with a PFD-425S Peltier cell holder was used to measure CD spectra at 4 °C between 200 and 340 nm to determine the secondary structure content of various oligo constructs. The molar ellipticity was calculated and the plot was made using Excel.

G4 TeloDNA = test: FP assay, compound binding to 5′ fluorescein-labeled TeloDNA; conditions: 10 nM fluorescein-labeled probe, 3 independent experiments
Experimental: All the nucleic acids, peptides and chemicals were dissolved in buffer containing 20 mM HEPES pH7.5, 150 mM salt (KCl, NaCl, LiCl) at the stock concentration of 1 mM. For peptide and nucleic acid interactions, 25μL of each nucleic acids with a sequential twofold dilutions starting from 50 μM was added into each well of 96-well plate followed by adding 25μL of 10 nM FITC labeled TRF2 peptide. For compounds and nucleic acid interactions, 20μL of each compounds with a sequential twofold dilutions starting from 50 μM were added into each well of 96-well plate followed by adding 5μL of 20 ng/mL tRNA and 25μL of 10 nM FAM labeled nucleic acids. For inhibition assay, 5μL FITC labeled TRF2 GAR peptide (10 nM final concentration) and 10 μL oligos (5 μM final concentration) were mixed, followed by adding 5μL of each compound with a sequential twofold dilutions starting from 50 μM into each well of 384-well plate. All components were mixed thoroughly, and the plate was incubated at room temperature for 1 h before placing in an Envision Plate Reader for reading at 495/520 nm. All data curves were fitted using Prism 8.0.

LOX cells = test: Metaphase telomere FISH in LOX cells; type: cell-based, human; conditions: 2 μM, 3 days
Experimental: Mei et al, 2020 TERRA Requires TRF2 GAR Domain
Instruments, Inc., Melville, NY) with ImagePro Plus software (Media Cybernetics, Silver Spring, MD) for image processing. Cells with > 5 53BP1/γH2AX foci co-localizing with telomere DNA foci were scored as positive for TIF. The quantification was generated from at least three independent Immuno-FISH experiments.
FISH analysis on metaphase spreads was performed as previously described 5. Briefly, LOX cells were treated with indicated chemicals (2 µM) for 3 days in a 37 °C CO2 incubator. LOX TRF2∆B cells were cultured in the absence (-) or presence (+) of 1 µg/ml doxycycline for 20 days in 37 °C incubator. Colcemid (0.1 mg/ml; GIBCO) was then added to cells and incubated for 4 hrs to accumulate mitotic cells. Cells were collected by trypsinization and suspended in 75 mM KCl hypotonic solution at 37 °C for 25 min before fixation in fresh 3:1 methanol/acetic acid for 4-5 times. Fixed cells were dropped onto cold, wet glass microscope slides and allowed to dry slowly in a humid environment. Metaphase chromosome spreads were fixed in 4% paraformaldehyde in 1x PBS for 3 min, dehydrated in ethanol series [70%, 95%,100% (vol/vol)], and air-dried. Slides were denatured for 5 min at 81 °C in hybridization mix [70% (vol/vol) formamide, 10 mM Tris·HCl (pH 7.2), and 0.5% blocking solution (Roche)] containing telomeric PNA-Cy3-(CCCTAA)3 probe (PNA Bio). […]

| SMILES | alteration of CD spectrum of TERRA at major peak (~260 nm) (TERRA) | EC50 (G4 TeloDNA) [µM] | frequency of telomere aberrations incl. fragile telomere doublets (LOX cells) |
| --- | --- | --- | --- |
| CN(C)c1ccc(Nc2c3ccc(NC(=O)CCN4CCCC4)cc3nc3cc(NC(=O)CCN4CCCC4)ccc23)cc1 [BRACO-19] | not BRACO-19 or PP altered the CD spectrum | 3.9 | increased the frequency of telomere aberrations |
| CCc1c(C)c2cc3nc(cc4nc(cc5c(CC)c(C)c(cc1[nH]2)n5C)C(C)=C4CCC(=O)O)C(CCC(=O)O)=C3C [NMM, N-methyl mesoporphyrin IX] | altered the CD spectrum of TERRA | 4.8 | increased the frequency of telomere aberrations |
